The nature of assay [1]: Concentration required to inhibit 50% of human peripheral blood mononuclear cells. It is filed as functional.
Assay [2] can be described thus: Antiviral activity against HIV in human peripheral blood mononuclear cells (PBMC). The assay is classed as functional.
Assay [3] has as its system HepG2. In words: Concentration required to inhibit 50% of 2.2.15 cell line. It is filed as functional, cell-based. Conditions: Homo sapiens.
Assay [4] concerns CCRF-CEM. The assay can be described thus: Concentration required to inhibit 50% of CEM cell lines. The assay is classed as functional, cell-based. Particulars: Homo sapiens.
Assay [5] relates to HepG2. In words: Antiviral activity against Hepatitis B virus in 2.2.15 cell line. The assay is classed as functional, cell-based. Particulars: Homo sapiens.
Assay [6] has as its system CCRF-CEM. In words: Antiviral activity against HIV in CEM cell line. It is filed as functional, cell-based. Particulars: Homo sapiens.

As usually defined, the IC50 is the concentration that gives 50% inhibition. Read a low IC50 as higher potency. As a reminder, the EC50 is the concentration at which the effect is half-maximal.

For the molecule `Nc1nc(O)c2ncn([C@H]3CC[C@@H](CO)O3)c2n1` (single isomer, unassigned), the IC50 in assay [1] is > 100 µM; in assay [3] it was 200 µM; in assay [4], > 100 µM. Besides, the EC50 was > 100 µM in assay [2], > 10 µM in assay [5] and > 100 µM in assay [6].
As to `O=c1[nH]cnc2c1ncn2[C@H]1CC[C@@H](CO)O1` (single isomer, unassigned) [DIDANOSINE], the IC50 in assay [1] is > 100 µM; in assay [3], > 200 µM. Also, the values for the half-maximal effective concentration (EC50) in assay [2] and in assay [5] were > 100 µM and > 10 µM, respectively.
Turning to `Nc1nc(O)c2ncn([C@@H]3C=C[C@H](CO)O3)c2n1`, the IC50 in assay [1] was > 100 µM; in assay [3], 50 µM; in assay [4], > 10 µM. The figures for the EC50 in assay [2], in assay [5] and in assay [6] were 14.1 µM, > 10 µM and 18.1 µM, respectively.
For the molecule `Nc1ncnc2c1ncn2[C@H]1CC[C@@H](CO)O1` (single isomer, unassigned), the values for the IC50 in assay [1] and in assay [3] were > 100 µM and > 200 µM, respectively. In addition, the half-maximal effective concentration (EC50) in assay [2] was found to be 8.2 µM; in assay [5], 6 µM.
With `Nc1ncnc2c1ncn2[C@H]1C=C[C@@H](CO)O1` (single isomer, unassigned), the IC50 amounted to 59 µM in assay [1], 70 µM in assay [3] and 37 µM in assay [4]. Moreover, the EC50 stood at 0.38 µM in assay [2], 1.2 µM in assay [5] and 0.54 µM in assay [6].
Regarding `OC[C@H]1C=C[C@@H](n2cnc3c(O)ncnc32)O1`, the IC50 was determined as 60 µM in assay [1] and 50 µM in assay [3]. The EC50 in assay [2] was 5.5 µM; in assay [5] it was > 10 µM.

The values are drawn from ChEMBL document CHEMBL1129120, “Anti-human immunodeficiency and anti-hepatitis B virus activities of -l-2,3-dideoxy purine nucleosides” (Bioorg Med Chem Lett, 1996).
